Test results reported in ChEMBL document CHEMBL3627608, “Crystal structures of human RIP2 kinase catalytic domain complexed with ATP-competitive inhibitors: Foundations for understanding inhibitor selectivity” (Bioorg Med Chem, 2015).

Legend:
[1] = target: LIM domain kinase 1 (Homo sapiens) (UniProt P53667); assay: Inhibition of LIMK1 (unknown origin) at 10 uM after 120 mins P33 radiolabeled kinase activity assay
[2] = target: Dual specificity protein kinase CLK2 (Homo sapiens) (UniProt P49760); assay: Inhibition of CLK2 (unknown origin) at 10 uM after 120 mins P33 radiolabeled kinase activity assay
Sequence of Dual specificity protein kinase CLK2 (Homo sapiens) (P49760 whole entry, looked up): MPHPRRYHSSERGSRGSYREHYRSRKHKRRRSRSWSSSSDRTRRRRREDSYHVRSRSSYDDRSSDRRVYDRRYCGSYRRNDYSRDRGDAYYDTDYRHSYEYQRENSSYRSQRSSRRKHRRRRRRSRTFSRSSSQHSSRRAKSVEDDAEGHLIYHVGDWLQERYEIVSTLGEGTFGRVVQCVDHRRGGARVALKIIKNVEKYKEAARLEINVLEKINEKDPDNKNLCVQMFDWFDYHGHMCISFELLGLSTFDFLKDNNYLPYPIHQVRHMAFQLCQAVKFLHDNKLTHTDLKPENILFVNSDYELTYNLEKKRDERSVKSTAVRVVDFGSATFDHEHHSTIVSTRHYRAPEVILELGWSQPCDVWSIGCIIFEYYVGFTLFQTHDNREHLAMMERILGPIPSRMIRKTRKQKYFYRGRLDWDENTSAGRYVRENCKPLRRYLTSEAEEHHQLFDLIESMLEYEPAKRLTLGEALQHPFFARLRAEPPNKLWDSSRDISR

[3] = target: SRSF protein kinase 1 (Homo sapiens) (UniProt Q96SB4); assay: Inhibition of SRPK1 (unknown origin) at 10 uM after 120 mins P33 radiolabeled kinase activity assay
Sequence of SRSF protein kinase 1 (Homo sapiens) (Q96SB4 whole entry): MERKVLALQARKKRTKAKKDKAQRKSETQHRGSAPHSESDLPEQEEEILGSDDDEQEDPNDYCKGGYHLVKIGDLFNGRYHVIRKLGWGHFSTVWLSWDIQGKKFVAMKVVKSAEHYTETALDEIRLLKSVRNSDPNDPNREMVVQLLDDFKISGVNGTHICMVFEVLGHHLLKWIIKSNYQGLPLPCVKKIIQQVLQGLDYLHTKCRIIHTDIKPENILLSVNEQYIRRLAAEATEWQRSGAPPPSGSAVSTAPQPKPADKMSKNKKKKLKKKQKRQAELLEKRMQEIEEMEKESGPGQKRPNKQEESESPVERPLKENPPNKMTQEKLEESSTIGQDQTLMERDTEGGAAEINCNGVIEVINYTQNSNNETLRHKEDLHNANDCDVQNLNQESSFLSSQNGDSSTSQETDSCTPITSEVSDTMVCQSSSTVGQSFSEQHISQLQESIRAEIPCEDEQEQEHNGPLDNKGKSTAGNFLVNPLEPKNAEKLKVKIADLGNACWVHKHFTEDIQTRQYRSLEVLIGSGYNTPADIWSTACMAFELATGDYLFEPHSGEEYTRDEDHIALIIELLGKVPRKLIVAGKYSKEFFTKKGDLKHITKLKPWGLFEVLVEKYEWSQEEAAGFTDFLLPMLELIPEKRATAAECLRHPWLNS

[4] = target: Serine/threonine-protein kinase SIK1 (Homo sapiens) (UniProt P57059); assay: Inhibition of SIK1 (unknown origin) at 10 uM after 120 mins P33 radiolabeled kinase activity assay
Sequence of Serine/threonine-protein kinase SIK1 (Homo sapiens) (P57059 whole entry): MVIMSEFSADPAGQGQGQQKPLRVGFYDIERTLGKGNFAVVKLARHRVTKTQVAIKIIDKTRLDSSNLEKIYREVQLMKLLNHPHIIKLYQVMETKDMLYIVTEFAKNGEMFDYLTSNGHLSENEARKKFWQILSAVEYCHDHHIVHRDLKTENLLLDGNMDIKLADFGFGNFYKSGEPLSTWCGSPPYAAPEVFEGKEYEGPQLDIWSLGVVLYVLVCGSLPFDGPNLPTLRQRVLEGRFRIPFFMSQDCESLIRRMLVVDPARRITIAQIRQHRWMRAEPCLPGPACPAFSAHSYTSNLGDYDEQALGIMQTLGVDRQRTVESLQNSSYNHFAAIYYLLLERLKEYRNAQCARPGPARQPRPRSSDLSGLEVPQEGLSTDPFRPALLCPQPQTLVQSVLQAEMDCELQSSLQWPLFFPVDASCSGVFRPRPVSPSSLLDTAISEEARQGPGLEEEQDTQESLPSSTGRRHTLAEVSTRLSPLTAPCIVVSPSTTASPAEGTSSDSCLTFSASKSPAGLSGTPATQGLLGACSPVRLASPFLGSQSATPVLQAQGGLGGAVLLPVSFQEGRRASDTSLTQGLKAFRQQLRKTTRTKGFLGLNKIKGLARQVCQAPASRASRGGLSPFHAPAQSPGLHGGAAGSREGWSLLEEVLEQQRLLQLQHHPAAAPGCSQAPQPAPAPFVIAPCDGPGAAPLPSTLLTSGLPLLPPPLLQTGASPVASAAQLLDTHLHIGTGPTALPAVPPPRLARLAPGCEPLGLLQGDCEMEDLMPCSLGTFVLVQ

[5] = target: Serine/threonine-protein kinase PAK 5 (Homo sapiens) (UniProt Q9P286); assay: Inhibition of PAK5 (unknown origin) at 10 uM after 120 mins P33 radiolabeled kinase activity assay
Sequence of Serine/threonine-protein kinase PAK 5 (Homo sapiens) (Q9P286 whole entry, looked up): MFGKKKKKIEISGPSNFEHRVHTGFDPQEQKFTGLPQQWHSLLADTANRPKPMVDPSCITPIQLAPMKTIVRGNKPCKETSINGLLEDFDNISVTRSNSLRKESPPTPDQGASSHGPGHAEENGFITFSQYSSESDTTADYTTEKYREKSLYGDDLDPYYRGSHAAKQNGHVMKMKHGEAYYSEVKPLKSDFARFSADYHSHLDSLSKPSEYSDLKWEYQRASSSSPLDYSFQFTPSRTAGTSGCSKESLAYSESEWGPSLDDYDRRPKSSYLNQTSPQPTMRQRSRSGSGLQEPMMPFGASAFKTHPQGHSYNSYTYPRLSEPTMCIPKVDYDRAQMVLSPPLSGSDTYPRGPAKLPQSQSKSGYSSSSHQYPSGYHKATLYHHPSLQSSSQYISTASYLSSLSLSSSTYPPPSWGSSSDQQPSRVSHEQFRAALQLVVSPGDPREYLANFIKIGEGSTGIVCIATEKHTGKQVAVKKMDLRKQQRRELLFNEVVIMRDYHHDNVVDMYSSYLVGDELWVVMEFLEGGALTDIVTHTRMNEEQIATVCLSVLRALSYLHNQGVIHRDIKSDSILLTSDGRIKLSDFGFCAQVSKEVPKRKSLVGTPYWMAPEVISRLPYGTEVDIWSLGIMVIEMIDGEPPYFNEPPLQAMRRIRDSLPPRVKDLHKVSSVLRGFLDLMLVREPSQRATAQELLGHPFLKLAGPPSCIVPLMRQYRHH

[6] = target: Tyrosine-protein kinase Fes/Fps (Homo sapiens) (UniProt P07332); assay: Inhibition of FES (unknown origin) at 10 uM after 120 mins P33 radiolabeled kinase activity assay
Sequence of Tyrosine-protein kinase Fes/Fps (Homo sapiens) (P07332 whole entry): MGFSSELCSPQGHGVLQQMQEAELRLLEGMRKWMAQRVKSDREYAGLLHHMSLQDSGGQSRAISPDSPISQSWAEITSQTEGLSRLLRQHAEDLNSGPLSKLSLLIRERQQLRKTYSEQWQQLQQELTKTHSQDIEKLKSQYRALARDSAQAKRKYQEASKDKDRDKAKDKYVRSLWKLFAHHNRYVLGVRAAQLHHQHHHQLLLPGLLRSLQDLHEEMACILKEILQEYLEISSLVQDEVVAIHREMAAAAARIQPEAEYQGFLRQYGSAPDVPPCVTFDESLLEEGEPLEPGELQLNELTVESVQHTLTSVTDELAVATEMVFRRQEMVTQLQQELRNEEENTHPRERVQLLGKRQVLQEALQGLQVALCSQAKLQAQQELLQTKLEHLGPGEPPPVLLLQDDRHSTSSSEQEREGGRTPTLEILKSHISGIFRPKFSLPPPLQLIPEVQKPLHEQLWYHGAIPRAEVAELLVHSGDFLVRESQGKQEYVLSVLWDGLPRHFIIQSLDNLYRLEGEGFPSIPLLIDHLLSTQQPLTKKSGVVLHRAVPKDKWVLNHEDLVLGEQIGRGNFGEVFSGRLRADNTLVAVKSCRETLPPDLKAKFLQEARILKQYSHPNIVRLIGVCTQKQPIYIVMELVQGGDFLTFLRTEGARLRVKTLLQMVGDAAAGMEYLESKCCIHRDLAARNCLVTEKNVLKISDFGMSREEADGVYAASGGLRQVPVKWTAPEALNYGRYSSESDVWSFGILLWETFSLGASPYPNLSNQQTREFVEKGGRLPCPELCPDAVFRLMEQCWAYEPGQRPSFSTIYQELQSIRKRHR

[7] = target: T1, Mitogen-activated protein kinase kinase kinase 5 (Homo sapiens) (UniProt Q99683); assay: Inhibition of ASK1 (unknown origin) at 10 uM after 120 mins P33 radiolabeled kinase activity assay
T1 sequence (whole entry): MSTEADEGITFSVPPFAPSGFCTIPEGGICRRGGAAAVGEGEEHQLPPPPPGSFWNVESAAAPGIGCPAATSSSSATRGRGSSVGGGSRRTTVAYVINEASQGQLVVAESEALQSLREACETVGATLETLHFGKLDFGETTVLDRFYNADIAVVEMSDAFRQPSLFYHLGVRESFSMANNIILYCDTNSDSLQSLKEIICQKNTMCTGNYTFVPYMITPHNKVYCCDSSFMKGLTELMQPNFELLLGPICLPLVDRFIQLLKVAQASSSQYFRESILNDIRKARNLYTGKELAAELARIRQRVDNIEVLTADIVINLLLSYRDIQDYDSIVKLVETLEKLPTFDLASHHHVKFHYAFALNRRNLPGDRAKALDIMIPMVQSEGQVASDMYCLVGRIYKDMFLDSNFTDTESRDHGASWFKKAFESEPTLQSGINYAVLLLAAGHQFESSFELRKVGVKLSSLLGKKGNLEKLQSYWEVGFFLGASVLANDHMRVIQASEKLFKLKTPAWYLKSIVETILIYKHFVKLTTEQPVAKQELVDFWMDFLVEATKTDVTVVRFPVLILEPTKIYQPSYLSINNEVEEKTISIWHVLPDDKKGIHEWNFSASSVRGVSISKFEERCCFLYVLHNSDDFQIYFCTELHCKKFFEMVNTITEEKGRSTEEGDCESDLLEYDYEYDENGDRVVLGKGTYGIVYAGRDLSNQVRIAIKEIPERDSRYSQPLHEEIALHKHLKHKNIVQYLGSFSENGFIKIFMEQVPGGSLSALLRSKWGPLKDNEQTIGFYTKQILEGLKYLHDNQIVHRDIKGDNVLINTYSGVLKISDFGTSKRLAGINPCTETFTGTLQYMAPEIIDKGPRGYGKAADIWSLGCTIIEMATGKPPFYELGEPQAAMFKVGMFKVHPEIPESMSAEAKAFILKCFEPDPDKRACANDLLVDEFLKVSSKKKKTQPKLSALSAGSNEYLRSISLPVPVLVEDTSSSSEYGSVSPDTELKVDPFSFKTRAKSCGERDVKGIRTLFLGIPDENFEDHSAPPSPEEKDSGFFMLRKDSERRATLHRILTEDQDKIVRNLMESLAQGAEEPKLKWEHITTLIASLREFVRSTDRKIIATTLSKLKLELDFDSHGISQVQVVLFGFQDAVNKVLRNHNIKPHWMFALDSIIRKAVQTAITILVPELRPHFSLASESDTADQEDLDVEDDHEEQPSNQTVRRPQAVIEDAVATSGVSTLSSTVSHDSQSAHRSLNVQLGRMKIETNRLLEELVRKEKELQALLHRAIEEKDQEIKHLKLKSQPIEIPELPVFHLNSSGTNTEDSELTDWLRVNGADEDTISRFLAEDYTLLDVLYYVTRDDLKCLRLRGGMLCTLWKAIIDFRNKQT

[8] = target: T2, G protein-coupled receptor kinase 3 (Homo sapiens) (UniProt P35626); assay: Inhibition of GRK3 (unknown origin) at 10 uM after 120 mins P33 radiolabeled kinase activity assay
T2 sequence (whole entry): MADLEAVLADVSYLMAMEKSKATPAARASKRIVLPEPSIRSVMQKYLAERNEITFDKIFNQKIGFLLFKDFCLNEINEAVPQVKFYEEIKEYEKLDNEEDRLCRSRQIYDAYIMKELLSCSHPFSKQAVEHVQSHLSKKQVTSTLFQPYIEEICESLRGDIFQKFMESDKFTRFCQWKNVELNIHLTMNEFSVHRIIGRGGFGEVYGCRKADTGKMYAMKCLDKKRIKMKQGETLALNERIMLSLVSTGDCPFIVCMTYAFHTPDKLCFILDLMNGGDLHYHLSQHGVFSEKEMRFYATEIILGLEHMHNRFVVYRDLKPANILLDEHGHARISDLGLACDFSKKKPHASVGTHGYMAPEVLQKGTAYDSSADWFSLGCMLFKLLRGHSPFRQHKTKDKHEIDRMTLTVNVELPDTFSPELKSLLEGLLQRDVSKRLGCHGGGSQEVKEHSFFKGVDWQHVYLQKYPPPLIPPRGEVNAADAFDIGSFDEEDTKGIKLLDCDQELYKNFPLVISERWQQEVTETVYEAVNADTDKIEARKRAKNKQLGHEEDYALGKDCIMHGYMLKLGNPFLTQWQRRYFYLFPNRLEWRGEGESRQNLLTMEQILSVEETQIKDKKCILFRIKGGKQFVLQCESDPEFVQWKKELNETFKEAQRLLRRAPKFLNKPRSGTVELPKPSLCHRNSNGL

[9] = target: SRSF protein kinase 2 (Homo sapiens) (UniProt P78362); assay: Inhibition of SRPK2 (unknown origin) at 10 uM after 120 mins P33 radiolabeled kinase activity assay
Sequence of SRSF protein kinase 2 (Homo sapiens) (P78362 whole entry, looked up): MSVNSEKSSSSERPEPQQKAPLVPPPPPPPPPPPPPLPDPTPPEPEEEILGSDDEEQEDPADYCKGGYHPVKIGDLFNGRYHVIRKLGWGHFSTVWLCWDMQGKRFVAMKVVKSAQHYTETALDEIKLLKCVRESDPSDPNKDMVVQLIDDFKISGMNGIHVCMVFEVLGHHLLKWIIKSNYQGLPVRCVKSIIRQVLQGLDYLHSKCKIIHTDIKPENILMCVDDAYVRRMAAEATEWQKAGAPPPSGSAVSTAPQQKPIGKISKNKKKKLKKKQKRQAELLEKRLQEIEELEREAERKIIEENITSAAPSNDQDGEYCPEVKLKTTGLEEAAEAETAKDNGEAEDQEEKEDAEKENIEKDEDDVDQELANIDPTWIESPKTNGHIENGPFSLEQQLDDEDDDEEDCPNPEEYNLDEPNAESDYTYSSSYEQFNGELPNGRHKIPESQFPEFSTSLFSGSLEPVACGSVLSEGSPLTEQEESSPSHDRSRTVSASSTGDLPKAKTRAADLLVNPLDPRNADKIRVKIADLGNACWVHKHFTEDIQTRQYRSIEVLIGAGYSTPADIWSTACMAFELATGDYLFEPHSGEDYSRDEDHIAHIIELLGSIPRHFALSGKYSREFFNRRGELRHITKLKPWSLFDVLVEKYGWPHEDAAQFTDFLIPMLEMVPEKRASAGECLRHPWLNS

Sequence of LIM domain kinase 1 (Homo sapiens) (P53667 whole entry, looked up, the tested form may be a part): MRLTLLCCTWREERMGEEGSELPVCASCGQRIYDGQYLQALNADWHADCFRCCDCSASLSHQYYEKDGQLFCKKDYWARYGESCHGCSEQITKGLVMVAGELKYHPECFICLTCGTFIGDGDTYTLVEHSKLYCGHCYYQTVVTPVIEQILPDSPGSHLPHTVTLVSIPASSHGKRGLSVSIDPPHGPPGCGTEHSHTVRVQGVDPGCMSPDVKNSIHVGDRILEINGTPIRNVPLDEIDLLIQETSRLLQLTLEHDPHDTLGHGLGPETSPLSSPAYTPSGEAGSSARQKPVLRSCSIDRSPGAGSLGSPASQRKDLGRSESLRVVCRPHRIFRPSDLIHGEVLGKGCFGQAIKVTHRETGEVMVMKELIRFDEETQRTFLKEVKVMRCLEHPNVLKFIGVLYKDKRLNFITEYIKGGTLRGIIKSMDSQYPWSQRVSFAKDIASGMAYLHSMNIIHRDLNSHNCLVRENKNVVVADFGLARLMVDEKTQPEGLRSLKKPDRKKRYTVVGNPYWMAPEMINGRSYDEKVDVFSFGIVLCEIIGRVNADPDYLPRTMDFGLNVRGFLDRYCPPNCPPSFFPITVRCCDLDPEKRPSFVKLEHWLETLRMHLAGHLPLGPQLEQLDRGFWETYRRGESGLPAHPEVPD

| inhibition [1] [%] | inhibition [2] [%] | inhibition [3] [%] | inhibition [4] [%] | inhibition [5] [%] | inhibition [6] [%] | inhibition [7] [%] | inhibition [8] [%] | inhibition [9] [%] | Compound |
| --- | --- | --- | --- | --- | --- | --- | --- | --- | --- |
| 99.2 | 24.5 | 18.5 | 101 | 17.8 | 42.4 | 9.88 | -3.43 | 17.7 | CS(=O)(=O)c1cccc(Nc2nccc(-c3sc(N4CCOCC4)nc3-c3cccc(NS(=O)(=O)c4c(F)cccc4F)c3)n2)c1 |
| 8.6 | 7.06 | 5.66 | 34.4 | 14.8 | 16.4 | 19.7 | -0.61 | 7.04 | COCCNC(=O)c1ccc2c(c1)nc(-c1cnc(-c3ccc(Cl)cc3)[nH]1)n2CCOC |
| 75.6 | 28.8 | 59.1 | 22.6 | 14.3 | 33.8 | 19.8 | -2.07 | 18 | CC(C)(C)c1cc(NC(=O)Nc2ccc(Oc3ccncc3)cc2)no1 |
